Consider 4 compounds from patent US20200345686A1, “COMPOSITIONS AND METHODS FOR TREATING SKIN AND N[…] DISORDERS” (VCP IP HOLDINGS, LLC, LIMITED LIABILITY COMPANY DELAWARE, priority 2019, published 2020).

The conditions of data set [1]: one study; cited from earlier work.
Data set [2] addresses cannabinoid receptor type-2 (CB2) (Homo sapiens, UniProt P34972). As to conditions: cited from earlier work.
The conditions of data set [3]: mice; cited from earlier work.
The conditions of data set [4]: mammals; cited from earlier work.
The nature of data set [5]: Tape-strip test of THC absorbance into pig skin after topical application of salve. Format: in vitro ADME. On the procedure: A composition as described herein, e.g., in the form of a salve containing 1000 mg THC and carrier components was tested for its absorbance into skin following topical application to the skin of an animal (pig).
The absorbance testing procedure was performed as follows: the salve/lotion composition was applied topically to an area of the skin of a pig. Approximately 500 mg of the salve/lotion composition was applied to the area of skin using a gloved finger. The composition was applied to the skin by rubbing in a circular motion. The applied composition (salve composition) remained on the skin for different time periods, i.e., 10 minutes, 30 minutes, or 60 minutes, to allow the components of the composition, e.g., THC, to absorb into the skin. At the end of each time period, the area of the skin on which the composition had been applied was contacted with adhesive strips to test for the presence of residual cannabinoids, using an adhesive test tape (strip) method, e.g., as known in the art. (See, e.g., A. L. M. Ruela et al., 2016, BJPS, Vol. 52, No. 3:527-544; S. Zsiko et al., 2019, Sci. Pharm. (Review), Vol. 87, No. 19; doi:10.3390/scipharm87030019, 21 pages). In general, the tape-stripping technique is employed for analysis of penetration of an active or component (e.g., THC) into the stratum corneum. The procedure may be applied using an animal skin model, such as pig skin, e.g., a portion of skin removed from the animal. The procedure involved the sequence removal of cell layers of the stratum corneum by application of pieces (strips) of adhesive tape. The residues of the applied composition or formulation were removed from the skin surface, and the adhesive strip was applied by using pressure to ensure its adhesion to the skin. […]
FIG. 1 illustrates the results of the time course experiment following absorption testing 10 minutes after the composition comprising 1000 mg THC+carrier ingredients was applied to the animal's skin. Absorption or permeation of THC (ppm) per layer of skin (20 skin layers deep) was assessed using adhesive test strips. […]

Chain of cannabinoid receptor type-2 (CB2) (P34972 whole entry, species assumed): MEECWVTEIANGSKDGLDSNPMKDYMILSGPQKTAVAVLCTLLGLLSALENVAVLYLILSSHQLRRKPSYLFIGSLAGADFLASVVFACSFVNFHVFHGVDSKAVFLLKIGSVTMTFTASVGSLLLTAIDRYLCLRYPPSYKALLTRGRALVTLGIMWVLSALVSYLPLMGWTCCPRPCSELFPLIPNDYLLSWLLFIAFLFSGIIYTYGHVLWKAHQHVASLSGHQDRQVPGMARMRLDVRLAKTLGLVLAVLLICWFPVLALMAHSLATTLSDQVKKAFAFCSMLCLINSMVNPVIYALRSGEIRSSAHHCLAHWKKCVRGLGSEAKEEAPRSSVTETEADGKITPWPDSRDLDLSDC

Turning to `C=C(C)[C@@H]1CCC(C)=C[C@H]1c1c(O)cc(CCCCC)cc1O` [CBD, (−)-trans-cannabidiol], the “relieving pain and reducing inflammation compared with aspirin” value in data set [1] is given as “more effective than aspirin”. As for `C=C1CCC=C(C)CCC2C1CC2(C)C` (stereo not shown) [Caryophyllene, 4,11,11-trimethyl-8-methylene-bicyclo[7.2.0]undec-4-ene], the “activity at CB2” value in data set [2] is reported as “selective agonist”. In data set [3], the anti-inflammatory effects entry is recorded as “significant cannabi-mimetic, anti-inflammatory effects”. On to `C/C1=C\CC/C(C)=C/CC(C)(C)/C=C/C1` [Humulene], for which the anti-inflammatory activity entry in data set [4] is recorded as “effects similar to those of dexamethasone”. Consider `CCCCCc1cc(O)c2c(c1)OC(C)(C)[C@@H]1CCC(C)=C[C@@H]21` [THC, Δ^9-tetrahydrocannabinol], for which the “presence of cannabinoids in the skin layers beneath the stratum corneum” value in data set [5] (5 ppm limit of quantification (LOQ), pig skin tape strips) is recorded as “inability to detect the presence of cannabinoids”. The “location of THC component in skin” value in data set [5] (60 minutes after topical application, salve containing 1000 mg THC + carrier, pig skin) is “the majority of the THC component had entered the stratum corneum”. Further, the “time after topical application at which absorption or penetration of THC into the skin was highest” value in data set [5] (salve containing 1000 mg THC + carrier, approx. 500 mg applied to pig skin, 20 tape strips, HPLC) lay within 10 to 30 min.
